Assay results reported in US10800774B2, “Heterocyclic inhibitors of ATR kinase” (Board of Regents, The University of Texas System, priority 2017, dated 2020).

Assays:
[1] = tested on: ATR-driven phosphorylation of Chk1 kinase at Serine 345 in HT-29 cells; experiment: pCHK1 cellular assay (CHK1 p-Ser345 AlphaScreen SureFire); conditions: Homo sapiens, HT-29, read-out: pCHK1 Cell IC50
ATR/ATRIP complex = ATR/ATRIP complex (Homo sapiens (Human), UniProt Q13535); experiment: ATR/ATRIP enzymatic assay (Caliper-based); assay type: biochemical; conditions: FAM-labeled RAD17 peptide, ATP; read-out: ATR/ATRIP Enzyme IC50
Protocol: Human full-length FLAG-TEV-ATR and His6-ATRIP were co-expressed in HEK293 cells. […] The sample was loaded into a column, and then washed with buffer A three times. Protein was subsequently eluted with 2 ml of buffer B (buffer A+200 μg/ml 3×FLAG peptide).
The ability of new chemical matter to inhibit the ATR catalytic activity in this ATR/ATRIP complex was assessed using a Caliper-based assay. A 2× enzyme solution (i.e., 4 nM enzyme) was prepared using 1× Kinase Reaction Buffer (25 mM HEPES pH 8, 0.0055% Brij-35, 10 mM MnCl2, and 1 mM DTT). […] 10 μL of the 2× enzyme solution was transferred to an assay plate containing 60 nL of test compound (from a 3× serial dilution) in 100% DMSO. Following a 30 minute incubation at 28° C., 10 μL of the 2× peptide solution was then transferred to the same assay plate. The reaction was allowed to incubate at 28° C. for 6 hours. After adding […] of stop buffer (100 mM HEPES pH 7.5, 0.015% Brij-35, 0.2% Coating-3 Reagent (PerkinElmer, catalog # PN760050), and 50 mM EDTA), data were collected on a Caliper instrument. Conversion values were converted to inhibition values via the following equation: % inhibition=(max−conversion)/(max−min)*100, whereby “max” corresponds to the DMSO control and “min” corresponds to the low control. IC50 values were calculated using the following equation in XLFit: Y=Bottom+(Top−Bottom)/1+(IC50/X)^HillSlope).

ATR/ATRIP complex, sequence (Q13535 whole entry): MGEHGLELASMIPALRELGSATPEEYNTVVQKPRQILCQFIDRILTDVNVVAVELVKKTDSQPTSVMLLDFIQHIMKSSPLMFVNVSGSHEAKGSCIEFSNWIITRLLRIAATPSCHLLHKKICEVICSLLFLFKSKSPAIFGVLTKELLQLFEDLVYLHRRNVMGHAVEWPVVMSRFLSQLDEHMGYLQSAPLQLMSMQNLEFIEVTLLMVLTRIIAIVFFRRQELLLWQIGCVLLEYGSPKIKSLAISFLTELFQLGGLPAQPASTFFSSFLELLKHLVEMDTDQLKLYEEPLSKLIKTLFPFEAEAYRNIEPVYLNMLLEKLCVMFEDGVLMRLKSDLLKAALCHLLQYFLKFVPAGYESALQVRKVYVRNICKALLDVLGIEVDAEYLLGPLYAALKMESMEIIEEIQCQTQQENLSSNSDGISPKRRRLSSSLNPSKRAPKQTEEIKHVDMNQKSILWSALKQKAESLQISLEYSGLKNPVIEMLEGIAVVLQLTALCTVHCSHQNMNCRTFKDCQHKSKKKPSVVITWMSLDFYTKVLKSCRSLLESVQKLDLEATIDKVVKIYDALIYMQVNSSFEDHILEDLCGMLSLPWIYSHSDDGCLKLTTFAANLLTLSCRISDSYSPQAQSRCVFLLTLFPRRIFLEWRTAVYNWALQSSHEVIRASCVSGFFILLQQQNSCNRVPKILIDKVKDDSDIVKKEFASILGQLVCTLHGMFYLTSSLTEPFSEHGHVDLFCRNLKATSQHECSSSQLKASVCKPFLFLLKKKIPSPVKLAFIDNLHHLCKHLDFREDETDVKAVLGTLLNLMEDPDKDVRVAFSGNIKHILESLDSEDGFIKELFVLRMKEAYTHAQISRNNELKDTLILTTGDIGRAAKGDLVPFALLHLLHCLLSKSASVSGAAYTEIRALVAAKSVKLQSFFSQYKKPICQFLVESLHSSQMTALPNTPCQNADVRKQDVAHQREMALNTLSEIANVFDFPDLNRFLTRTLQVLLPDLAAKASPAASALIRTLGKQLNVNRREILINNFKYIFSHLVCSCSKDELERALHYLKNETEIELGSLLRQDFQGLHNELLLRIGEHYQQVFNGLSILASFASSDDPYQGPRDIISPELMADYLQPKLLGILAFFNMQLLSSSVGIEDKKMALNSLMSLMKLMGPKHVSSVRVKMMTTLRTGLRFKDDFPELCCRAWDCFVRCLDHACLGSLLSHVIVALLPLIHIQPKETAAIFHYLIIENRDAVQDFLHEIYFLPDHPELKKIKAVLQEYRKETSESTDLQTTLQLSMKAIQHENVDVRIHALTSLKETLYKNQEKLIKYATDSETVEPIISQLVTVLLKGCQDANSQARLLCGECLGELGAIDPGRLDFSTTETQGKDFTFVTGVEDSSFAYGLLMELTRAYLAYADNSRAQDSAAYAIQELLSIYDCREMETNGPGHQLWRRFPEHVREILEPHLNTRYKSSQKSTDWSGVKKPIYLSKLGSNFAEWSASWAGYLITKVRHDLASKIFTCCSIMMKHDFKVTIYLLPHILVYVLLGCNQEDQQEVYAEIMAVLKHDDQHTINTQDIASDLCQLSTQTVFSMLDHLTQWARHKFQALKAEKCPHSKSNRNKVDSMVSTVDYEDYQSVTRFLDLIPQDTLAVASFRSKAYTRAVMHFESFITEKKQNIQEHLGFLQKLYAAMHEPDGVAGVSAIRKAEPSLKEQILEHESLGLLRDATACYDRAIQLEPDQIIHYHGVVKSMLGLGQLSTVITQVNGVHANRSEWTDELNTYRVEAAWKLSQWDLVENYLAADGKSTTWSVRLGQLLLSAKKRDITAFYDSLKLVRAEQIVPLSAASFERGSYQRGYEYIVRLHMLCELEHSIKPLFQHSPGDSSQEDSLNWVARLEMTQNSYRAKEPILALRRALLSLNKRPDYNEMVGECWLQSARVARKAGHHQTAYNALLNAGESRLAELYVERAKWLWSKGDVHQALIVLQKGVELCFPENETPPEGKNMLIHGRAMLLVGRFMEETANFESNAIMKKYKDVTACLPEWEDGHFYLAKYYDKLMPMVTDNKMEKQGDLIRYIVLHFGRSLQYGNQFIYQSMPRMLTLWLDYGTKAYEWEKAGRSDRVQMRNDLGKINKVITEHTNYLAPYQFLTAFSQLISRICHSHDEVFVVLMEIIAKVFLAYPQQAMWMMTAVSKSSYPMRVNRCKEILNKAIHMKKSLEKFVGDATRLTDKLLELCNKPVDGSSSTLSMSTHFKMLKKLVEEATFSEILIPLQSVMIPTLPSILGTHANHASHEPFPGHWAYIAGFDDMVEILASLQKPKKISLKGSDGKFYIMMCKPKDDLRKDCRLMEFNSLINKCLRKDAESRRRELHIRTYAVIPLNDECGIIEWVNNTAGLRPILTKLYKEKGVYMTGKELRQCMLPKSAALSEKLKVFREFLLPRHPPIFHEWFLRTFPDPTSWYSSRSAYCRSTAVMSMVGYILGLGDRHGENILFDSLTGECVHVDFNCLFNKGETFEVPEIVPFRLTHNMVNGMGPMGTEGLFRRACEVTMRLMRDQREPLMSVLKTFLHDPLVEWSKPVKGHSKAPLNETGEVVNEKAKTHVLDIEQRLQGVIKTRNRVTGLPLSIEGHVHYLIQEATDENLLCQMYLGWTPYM
ATR/ATRIP complex, sequence (Q8WXE1 whole entry partner): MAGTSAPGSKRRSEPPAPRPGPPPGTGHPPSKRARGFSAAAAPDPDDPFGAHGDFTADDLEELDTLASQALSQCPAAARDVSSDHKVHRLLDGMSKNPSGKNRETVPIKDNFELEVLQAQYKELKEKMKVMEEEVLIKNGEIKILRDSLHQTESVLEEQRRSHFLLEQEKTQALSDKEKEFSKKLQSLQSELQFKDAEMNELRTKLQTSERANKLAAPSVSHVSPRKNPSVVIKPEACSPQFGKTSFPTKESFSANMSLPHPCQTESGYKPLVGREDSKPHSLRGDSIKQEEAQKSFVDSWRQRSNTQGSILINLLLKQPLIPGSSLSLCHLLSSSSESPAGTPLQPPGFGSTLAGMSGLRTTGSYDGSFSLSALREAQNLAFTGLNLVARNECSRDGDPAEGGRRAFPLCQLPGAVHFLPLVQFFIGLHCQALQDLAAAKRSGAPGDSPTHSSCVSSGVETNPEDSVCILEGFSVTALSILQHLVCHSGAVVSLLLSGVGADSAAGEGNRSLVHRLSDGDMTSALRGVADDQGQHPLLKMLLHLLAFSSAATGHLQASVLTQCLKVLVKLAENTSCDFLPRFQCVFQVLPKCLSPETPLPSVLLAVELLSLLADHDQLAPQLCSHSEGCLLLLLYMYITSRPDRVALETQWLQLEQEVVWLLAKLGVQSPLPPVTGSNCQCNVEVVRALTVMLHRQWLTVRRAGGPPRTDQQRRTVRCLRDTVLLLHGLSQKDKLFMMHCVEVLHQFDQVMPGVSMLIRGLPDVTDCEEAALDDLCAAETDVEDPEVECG

| Structure (SMILES) | IC50 [1] [nM] | IC50 (ATR/ATRIP complex) [nM] |
| --- | --- | --- |
| C[C@@H]1COCCN1c1cc(C2CCCS2(=O)=O)nc(-c2cc(Cl)nc3[nH]ccc23)n1 (single isomer, unassigned) [Example 5a] | 177 | 31 |
| C[C@@H]1COCCN1c1cc([C@H]2CCCS2(=O)=O)nc(-c2cc(Cl)nc3[nH]ccc23)n1 (single isomer, unassigned) [Example 5b] | 435 | 72 |
| CCN1CCCN(c2cc(N3CCOC[C@H]3C)nc(-c3ccnc4[nH]ccc34)n2)S1(=O)=O [Example 1, (R)-2-Ethyl-6-(6-(3-methylmorpholino)-2-(1H-pyrrolo[2,3-b]pyridin-4-yl)pyrimidin-4-yl)-1,2,6-thiadiazinane 1,1-dioxide] | 95 | 7 |
| C[C@@H]1COCCN1c1cc(C2CCN(C)C2=O)nc(-c2ccnc3[nH]ccc23)n1 (stereo partly drawn) [Example 3, 1-Methyl-3-(6-((R)-3-methylmorpholino)-2-(1H-pyrrolo[2,3-b]pyridin-4-yl)pyrimidin-4-yl)pyrrolidin-2-one] | 496 | 48 |
| C[C@@H]1COCCN1c1cc(N2CCCN(C)S2(=O)=O)nc(-c2cc(Cl)nc3[nH]ccc23)n1 [Example 6, (R)-2-(2-(6-Chloro-1H-pyrrolo[2,3-b]pyridin-4-yl)-6-(3-methylmorpholino)pyrimidin-4-yl)-6-methyl-1,2,6-thiadiazinane 1,1-dioxide] | 505 | 52 |
| CC(C)N1CCCN(c2cc(N3CCOC[C@H]3C)nc(-c3ccnc4[nH]ccc34)n2)S1(=O)=O [Example 8, 2-{6-[(3R)-3-Methylmorpholin-4-yl]-2-{1H-pyrrolo[2,3-b]pyridin-4-yl}pyrimidin-4-yl}-6-(propan-2-yl)-1λ^6,2,6-thiadiazinane-1,1-dione] | 301 | 7 |
| CCN1CCCN(c2cc(N3CCOC[C@H]3C)nc(-c3cc(Cl)nc4[nH]ccc34)n2)S1(=O)=O [Example 9, 2-(2-{6-Chloro-1H-pyrrolo[2,3-b]pyridin-4-yl}-6-[(3R)-3-methylmorpholin-4-yl]pyrimidin-4-yl)-6-ethyl-1λ^6,2,6-thiadiazinane-1,1-dione] | 570 | 115 |
| C[C@@H]1COCCN1c1cc(C2CCCN(S(C)(=O)=O)C2)nc(-c2ccnc3[nH]ccc23)n1 (stereo partly drawn) [Example 10, (3R)-4-[6-(1-Methane-sulfonylpiperidin-3-yl)-2-{1H-pyrrolo[2,3-b]pyridin-4-yl}pyrimidin-4-yl]-3-methylmorpholine] | 134 | 7 |
| C[C@@H]1COCCN1c1cc(C2CCN(S(C)(=O)=O)C2)nc(-c2ccnc3[nH]ccc23)n1 (stereo partly drawn) [Example 11, (3R)-4-[6-(1-Methane-sulfonylpyrrolidin-3-yl)-2-{1H-pyrrolo[2,3-b]pyridin-4-yl}pyrimidin-4-yl]-3-methylmorpholine] | 97 | 8 |
| CC(=O)N1CCC(c2cc(N3CCOC[C@H]3C)nc(-c3ccnc4[nH]ccc34)n2)CC1 [Example 12, 1-(4-{6-[(3R)-3-Methylmorpholin-4-yl]-2-{1H-pyrrolo[2,3-b]pyridin-4-yl}pyrimidin-4-yl}piperidin-1-yl) ethan-1-one] | 128 | 24 |

Results, then the compound that gave them:

| IC50 [1] [nM] | IC50 (ATR/ATRIP complex) [nM] | Structure (SMILES) |
| --- | --- | --- |
| 186 | 10 | COC(=O)N1CCC(c2cc(N3CCOC[C@H]3C)nc(-c3ccnc4[nH]ccc34)n2)CC1 [Example 13, Methyl 4-{6-[(3R)-3-methylmorpholin-4-yl]-2-{1H-pyrrolo[2,3-b]pyridin-4-yl}pyrimidin-4-yl}piperidine-1-carboxylate] |
| 166 | 17 | C[C@@H]1COCCN1c1cc(C2CCOCC2)nc(-c2ccnc3[nH]ccc23)n1 [Example 14, (3R)-3-Methyl-4-[6-(oxan-4-yl)-2-{1H-pyrrolo[2,3-b]-pyridin-4-yl}pyrimidin-4-yl]-morpholine] |
| 210 | 10 | CC(=O)N1CCCC(c2cc(N3CCOC[C@H]3C)nc(-c3ccnc4[nH]ccc34)n2)C1 (stereo partly drawn) [Example 15, 1-(3-{6-[(3R)-3-Methylmorpholin-4-yl]-2-{1H-pyrrolo[2,3-b]pyridin-4-yl}pyrimidin-4-yl}piperidin-1-yl) ethan-1-one] |
| 242 | 19 | CC(=O)N1CCC(c2cc(N3CCOC[C@H]3C)nc(-c3ccnc4[nH]ccc34)n2)C1 (stereo partly drawn) [Example 16, 1-(3-{6-[(3R)-3-Methyl-morpholin-4-yl]-2-{1H-pyrrolo[2,3-b]pyridin-4-yl}-pyrimidin-4-yl}pyrrolidin-1-yl) ethan-1-one] |
| 138 | 10 | COC(=O)N1CCC(c2cc(N3CCOC[C@H]3C)nc(-c3ccnc4[nH]ccc34)n2)C1 (stereo partly drawn) [Example 17, Methyl 3-{6-[(3R)-3-methylmorpholin-4-yl]-2-{1H-pyrrolo[2,3-b]pyridin-4-yl}pyrimidin-4-yl}-pyrrolidine-1-carboxylate] |
| 191 | 14 | CNC(=O)N1CCC(c2cc(N3CCOC[C@H]3C)nc(-c3ccnc4[nH]ccc34)n2)C1 (stereo partly drawn) [Example 18, N-methyl-3-{6-[(3R)-3-methylmorpholin-4-yl]-2-{1H-pyrrolo[2,3-b]pyridin-4-yl}pyrimidin-4-yl}-pyrrolidine-1-carboxamide] |
| 921 | 47 | C[C@@H]1COCCN1c1cc(C2CCCN(C)C2=O)nc(-c2ccnc3[nH]ccc23)n1 (stereo partly drawn) [Example 19, 1-Methyl-3-{6-[(3R)-3-methylmorpholin-4-yl]-2-{1H-pyrrolo[2,3-b]pyridin-4-yl}pyrimidin-4-yl} piperidin-2-one] |
| 51 | 15 | CCC(=O)N1CCC(c2cc(N3CCOC[C@H]3C)nc(-c3ccnc4[nH]ccc34)n2)CC1 [Example 20, 1-(4-{6-[(3R)-3-Methylmorpholin-4-yl]-2-{1H-pyrrolo[2,3-b]pyridin-4-yl}pyrimidin-4-yl}piperidin-1-yl) propan-1-one] |
| 82 | 22 | C[C@@H]1COCCN1c1cc(C2CCN(C(=O)C3CC3)CC2)nc(-c2ccnc3[nH]ccc23)n1 [Example 21, (3R)-4-[6-(1-Cyclopropanecarbonylpiperidin-4-yl)-2-{1H-pyrrolo[2,3-b]pyridin-4-yl}pyrimidin-4-yl]-3-methylmorpholine] |
| 109 | 15 | CCOC(=O)N1CCC(c2cc(N3CCOC[C@H]3C)nc(-c3ccnc4[nH]ccc34)n2)CC1 [Example 22, Ethyl 4-{6-[(3R)-3-methylmorpholin-4-yl]-2-{1H-pyrrolo[2,3-b]pyridin-4-yl}pyrimidin-4-yl} piperidine-1-carboxylate] |
| 21 | 5 | C[C@@H]1COCCN1c1cc(C2CCN(S(=O)(=O)C3CC3)CC2)nc(-c2ccnc3[nH]ccc23)n1 [Example 23, (3R)-4-{6-[1-(Cyclopropane-sulfonyl)piperidin-4-yl]-2-{1H-pyrrolo[2,3-b]pyridin-4-yl}pyrimidin-4-yl}-3-methylmorpholine] |
| 85 | 13 | COCC(=O)N1CCC(c2cc(N3CCOC[C@H]3C)nc(-c3ccnc4[nH]ccc34)n2)CC1 [Example 24, 2-Methoxy-1-(4-{6-[(3R)-3-methylmorpholin-4-yl]-2-{1H-pyrrolo[2,3-b]pyridin-4-yl}pyrimidin-4-yl}piperidin-1-yl) ethan-1-one] |
